“Also recorded” adds a separate entry of the source.
How the values were obtained:
[1] = test system: C. striatum, Staph. epidermidis or a 1:1 mixture thereof
From the text: The pH of the medium with each of the different zinc salts needed some adjustment, which was done with 1 M HCl or 1 M NaOH depending upon the pH of the stock solutions of each zinc salt employed.

[2] = test system: Staph. epidermidis (ATCC 12228); assay: Kirby-Bauer disk diffusion susceptibility test; type: cell-based, Staphylococcus epidermidis; conditions: zinc compound alone, levels tested (1%, 3%, 5%)
From the text: (§1) C. striatum and Staph. epidermidis are among the most prevalent bacteria that comprise the human cutaneous microbiota. […] The purpose of this segment was to examine whether formulations arising out of the studies reported in the prior sections that favor the growth and metabolism of Staph. epidermidis as a desirable skin entity that can inhibit the growth of C. striatum, a less desirable entity, and do so when both microorganisms are present initially at the same levels. In this regard, an adaptation of the Kirby-Bauer disk diffusion susceptibility test appeared to be relevant for such determination.
(§2) Here we have grown less than desirable C. striatum and highly desirable Staph. epidermidis, alone and in combination, under a variety of substrate conditions to determine, if the latter micro-organism could be selected over C. striatum and thereby be used as a means of reducing the presence of less desirable odor-producing C. striatum.
(§3) Compositions indicated as possible suppressants of C. striatum and/or enhancers of Staph. epidermidis were based on the prior studies above and for convenience of presentation were categorized as possible active test ingredients and then formulae and mixtures in which they were tested. Accordingly, the total number of compositions tested was eight. Careful attention was paid to sterility throughout in the preparation and handling of the compounds and compositions utilized herein.
(§4) Each of these formulae were prepared at 4 different concentrations: original as in (b), and 1.5, 2.5 and 7.5 times the original concentration. Again, all formulae were prepared under aseptic conditions.
To make compositions 1.5 times the original concentration listed above, formulae 7.5 times the original concentrations were diluted a factor of 5 with sterile distilled water. […]
Each strain was determined as resistant, intermediate, or susceptible to the ingredients, formulae and mixtures tested. After 24 hours of incubation at 37° C., the diameter of the zone of growth inhibition around each disk was measured to the nearest whole mm. […]

C. striatum (ATCC 43751) = assay: Kirby-Bauer disk diffusion susceptibility test; type: cell-based, Corynebacterium striatum; conditions: for Intensity of inhibition of the growth of C. striatum (CS): Blood BHI agar plate, 37° C., 24 hours
From the text: as §1, §2, §3, §4
To make compositions 1.5 times the original concentration listed above, formulae 7.5 times the original concentrations were diluted a factor of 5 with sterile distilled water. To make compositions 2.5 times the original concentration listed above, formulae 7.5 times the original concentrations were diluted three-fold with sterile distilled water. To summarize: a total of 3 ingredients, 2 formulae and 2 mixtures were tested. A total of 20 disks were prepared for tests of susceptibility to each bacterial sample and these are outlined in Table 5.2 below:
A TB syringe with a 25-27 G sterile needle was used to help break up the remains of any pellets. […] Plating Procedures • Five bacterial samples of C. striatum and Staph. epidermidis were plated on Blood BHI agar and CHROMagar plates, respectively. • 100 μl of each bacterial sample was inoculated on Blood BHI agar plates by using sterile glass bars and a turning table to facilitate each bacterial sample being spread evenly on each of the agar plates. • Each spread bacterial suspension was allowed to dry on inoculated plates for five minutes. • Paper disks were immersed, respectively, with the above 3 ingredients, 2 formulae and 2 mixtures; absorptions were saturated. • Four disks were placed on each plate with sterile forceps. • Incubated plates within 15 minutes after applying the disks to ensure test was under standardized conditions, where diffusion of the ingredients and formulae and bacterial growth commence at approximately the same time. Plates were incubated at 37° C. for 24 hours. Interpretation of Results
Each strain was determined as resistant, intermediate, or susceptible to the ingredients, formulae and mixtures tested. After 24 hours of incubation at 37° C., the diameter of the zone of growth inhibition around each disk was measured to the nearest whole mm. Plates were carefully examined for well-developed colonies within the zone of inhibition.

[3] = test system: pure cultures of microorganisms resident on human axillary skin; conditions: for Odor released on catabolism: bacteria that catabolized the substrate
Experimental: Pure cultures of the numerically most prominent microorganisms normally resident on human axillary skin (see Table 1) were surveyed for their effects on (i) pH, (ii) Eh, (iii) ability to generate malodor and (iv) ability to generate hydrogen peroxide. Four hour incubation experiments were conducted, in which each of a wide range of carbohydrate and amino acid substrates (see Table 1) were surveyed for malodor production and related changes in pH and Eh thereto.
Each microorganism was recovered from its frozen state at −70° C. and grown at 37° C. in 10 ml of appropriate and respective culture media for a period between 24 and 48 hours (see Table 1). Incubations were carried out to middle and late exponential stages of bacterial growth under the incubation conditions indicated in Table 1. A 1.5 ml inoculum was transferred therefrom to polypropylene bottles containing 150 ml of the initial growth medium. This was then incubated at 37° C. for 24 to 48 hours. Bacteria were harvested by centrifugation (DuPone, Sorvall, Newtown, Conn.) at 10,000 g and 4° C. for 20 min. […] The sediment was then washed with sterile distilled water to remove residual growth medium. This was done by centrifuging the bacterial sediment three times at 1,740 g for 15 min at 4° C.
Each pure culture was pre-incubated at 37° C. at pH 7.0 to exhaust or reduce any stored carbohydrate and other carbon/energy sources acquired during growth in culture.
Both of these electrodes were connected to a second pH meter (pH M26 Radiometer Copenhagen NV, Denmark) and used here as a millivoltmeter. For the Eh measurements, when the Eh electrode was immersed in an incubation mixture, each Eh reading was recorded after allowing several seconds for each reading to stabilize. The Eh value was related to that of the hydrogen electrode by adding to each reading the difference between the E0 value for the Red Rod reference element-mercury and hydrogen electrodes—i.e. 270 my at 25° C.
At each time point, the odor was determined organoleptically by immersing a solid glass rod into each incubation mixture, stirring gently 3 times and then removing and carefully smelling the rod after 5 seconds. The intensity of the odor was assessed on a 0 to 4 numerical scale (0—no odor, 1—mild odor, 2—moderate odor, 3—strong odor, and 4—very strong odor).

[4] = test system: mixture of C. striatum and Staph. epidermidis in the ratio of 1 to 1; assay: Zinc carbonate / arginine bicarbonate on odor and pH, CIL and phenylalanine medium; type: cell-based
[5] = 3% and 5%, Blood BHI agar plates
[6] = concentration 5%, paper disk 12.7 mm

## CC(=O)[O-].CC(=O)[O-].[Zn+2] [Zinc acetate]
[1]; zinc acetate, CIL and either arginine or arginine bicarbonate, pH 4.0 to 8.0, 4 hours, no phenylalanine
  Sulfurous odor and Eh: No sulfurous odor nor corresponding decrease in the Eh

## NCC(=O)[O-].NCC(=O)[O-].[Zn+2] [Zinc glycinate, zinc glycinate]
[2]
  Sensitivity of Staph. epidermidis (in words): not sensitive
C. striatum (ATCC 43751); 1%, Blood BHI agar
  Sensitivity of C. striatum (in words): not sensitive
C. striatum (ATCC 43751); [5]
  Sensitivity of C. striatum (in words): viability loss; also recorded: sensitive
C. striatum (ATCC 43751); concentration 3%
  Diameter of the zone of growth inhibition, C. striatum: 14 mm
  Partial or complete inhibition, C. striatum: (p)
  Intensity of inhibition of the growth of C. striatum (CS): + ((+) the diameter of inhibition <15 mm)
C. striatum (ATCC 43751); concentration 5%
  Partial or complete inhibition, C. striatum: (p)
  Intensity of inhibition of the growth of C. striatum (CS): ++ ((++) the diameter of inhibition 15-20 mm)
C. striatum (ATCC 43751); [6]
  Diameter of the zone of growth inhibition, C. striatum: 17 mm

## N[C@@H](CS)C(=O)O [cysteine]
[3]; 6.0 mM
  Odor released on catabolism: sulfurous odor

## N[C@@H](CSSC[C@H](N)C(=O)O)C(=O)O [cystine]
[3]; 6.0 mM
  Odor released on catabolism: sulfurous odor

## CC(C)C[C@H](N)C(=O)O [leucine]
[3]; 6.0 mM, Staph. saprophyticus, Staph. hominis, Staph. haemolyticus and C. minutissium, 0 to 4 scale
  Foot-web odor score: 2

## CSCC[C@H](N)C(=O)O [methionine]
[3]; 6.0 mM, Staph. epidermidis, Staph. saprophyticus, C. jeikeium, C. minutissium, Brevibacterium epidermidis, P. avidum, P. acne, M. furfur
  Methyl mercaptan-like odor level: mild to moderate

## N[C@@H](Cc1ccccc1)C(=O)O [phenylalanine]
[3]; 6.0 mM, C. striatum, Staph. saprophyticus or Staph. hominis
  Odor produced on catabolism (in words): pleasant odor
[4]; medium with zinc carbonate, CIL and phenylalanine, between pH 5.0 and 8.0, 4 hours
  Pleasant odor: pleasant odor developed
[4]; phenylalanine added to zinc acetate, CIL, arginine or arginine bicarbonate media, pH 6.5 and 7.0, 4 hour
  Pleasant odor: pleasant odor appeared

## OC[C@H]1O[C@@](CO)(O[C@H]2O[C@H](CO)[C@@H](O)[C@H](O)[C@H]2O)[C@@H](O)[C@@H]1O [sucrose]
[3]; 28 mM carbohydrate, start pH 7.0, 37° C., 4 hours, across the bacteria tested
  pH response, lowest pH reached: 4.2

## N[C@@H](Cc1c[nH]c2ccccc12)C(=O)O [tryptophan]
[3]; 6.0 mM, M. luteus and P. acne, 0 to 4 scale
  Indole/skatole odor level: 2

## Zinc arginate
[1]; 12 mM zinc arginate, CIL and phenylalanine, pH 4.0 or 5.0, 4 hours
  Foot odor smell: mild
[1]; 12 mM zinc arginate, CIL and phenylalanine, pH 4.0 to 8.0, 4 hours
  Eh: decreased significantly
[1]; 12 mM zinc arginate, CIL and phenylalanine, pH 4.0 to 8.0, 4 hours, versus control groups
  Sulfurous odor: blocked completely
[1]; 12 mM zinc arginate, CIL and phenylalanine, pH 6.0 or above
  Foot odor generation: disappeared
[1]; C. striatum or the mixture, zinc arginate, CIL and phenylalanine, pH 5.0 to 8.0, 4 hours
  Favorable odor: evident
[1]; Staph. epidermidis alone, zinc arginate, CIL and phenylalanine, 4 hours
  Pleasant flower odor: not detected

## basic zinc carbonate (ZnCO3. 3 Zn(OH)2)
[2]
  Sensitivity of Staph. epidermidis (in words): not sensitive
C. striatum (ATCC 43751); 1%, Blood BHI agar
  Sensitivity of C. striatum (in words): not sensitive
C. striatum (ATCC 43751); [5]
  Sensitivity of C. striatum (in words): viability loss; also recorded: sensitive
C. striatum (ATCC 43751); concentration 1%
  Partial or complete inhibition, C. striatum: (p)
  Intensity of inhibition of the growth of C. striatum (CS): ±
C. striatum (ATCC 43751); concentration 3%
  Diameter of the zone of growth inhibition, C. striatum: 14 mm
  Partial or complete inhibition, C. striatum: (p)
  Intensity of inhibition of the growth of C. striatum (CS): + ((+) the diameter of inhibition <15 mm)
C. striatum (ATCC 43751); concentration 5%
  Partial or complete inhibition, C. striatum: (p)
  Intensity of inhibition of the growth of C. striatum (CS): ++ ((++) the diameter of inhibition 15-20 mm)
C. striatum (ATCC 43751); [6]
  Diameter of the zone of growth inhibition, C. striatum: 15 mm
[4]; medium with zinc carbonate, CIL and phenylalanine, pH 4.0 to 8.0, 4 hours
  Sulfurous odor: no sulfurous odor was observed

— patent US9555057B2, “Compositions and methods for reducing cutaneous microbiome malodor” (The Research Foundation for The State University of New York, priority 2014, dated 2017)
